Earlier results in patent US20080160065A1 (priority 2006, published 2008).
Where two headings read alike, the source gives them in different places.

Conditions: injected intramuscularly

- time to peak plasma concentration (adults): 2 h
- time to peak plasma concentration (children): 1 h
Compound: CCC[C@@H]1C[C@@H](C(=O)N[C@@H]([C@H]2O[C@H](SC)[C@H](O)[C@@H](O)[C@H]2O)[C@H](C)Cl)N(C)C1 [clindamycin]
